Legend:
Type in all cases: in vivo
[1] = tested on: Italian ryegrass (Lolium mutiflorum); experiment: Test C preemergence, visual plant response rating
In short: (§1)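 Compounds in a non-phytotoxic solvent with surfactant were applied as a directed soil spray preemergence or to 2–10 cm, one- to two-leaf plants postemergence, in loam–sand soil. After about 10 d in a greenhouse, injury was visually rated against untreated controls on a 0–100 scale (100 = complete control).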

[2] = tested on: barnyardgrass (Echinochloa crus-galli); experiment: Test C preemergence, visual plant response rating
In short: as §1

[3] = tested on: foxtail, giant (giant foxtail, Setaria faberi); experiment: Test C preemergence, visual plant response rating
In short: as §1

[4] = tested on: kochia (Bassia scoparia); experiment: Test C preemergence, visual plant response rating
In short: as §1

[5] = tested on: pigweed (Amaranthus retroflexus); experiment: Test C preemergence, visual plant response rating
In short: as §1

[6] = tested on: ragweed (common ragweed, Ambrosia artemisiifolia); experiment: Test C preemergence, visual plant response rating
In short: as §1

[7] = tested on: Italian ryegrass (Lolium mutiflorum); experiment: Test C postemergence, visual plant response rating
In short: as §1

[8] = tested on: barnyardgrass (Echinochloa crus-galli); experiment: Test C postemergence, visual plant response rating
In short: as §1

[9] = tested on: blackgrass (Alopecurus myosuroides); experiment: Test C postemergence, visual plant response rating
In short: as §1

[10] = tested on: corn (Zea mays); experiment: Test C postemergence, visual plant response rating
In short: as §1

[11] = tested on: foxtail, giant (giant foxtail, Setaria faberi); experiment: Test C postemergence, visual plant response rating
In short: as §1

[12] = tested on: galium (catchweed bedstraw, Galium aparine); experiment: Test C postemergence, visual plant response rating
In short: as §1

[13] = tested on: kochia (Bassia scoparia); experiment: Test C postemergence, visual plant response rating
In short: as §1

[14] = tested on: pigweed (Amaranthus retroflexus); experiment: Test C postemergence, visual plant response rating
In short: as §1

[15] = tested on: ragweed (common ragweed, Ambrosia artemisiifolia); experiment: Test C postemergence, visual plant response rating
In short: as §1

[16] = tested on: wheat (Triticum aestivum); experiment: Test C postemergence, visual plant response rating
In short: as §1

[17] = tested on: barnyardgrass (Echinochloa crus-galli); experiment: Test D flooded paddy test, visual plant response rating; conditions: 250 g ai/ha, scale 0 to 100 (0 no effect, 100 complete control), 13 to 15 d
In short: (§2)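 Plants were grown to the 2-leaf stage, pots flooded to 3 cm above soil, and compound applied directly into the paddy water, with the depth held throughout. After 13 to 15 d in a greenhouse, response was rated visually against untreated controls on a 0–100 scale (0 no effect, 100 complete control).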

[18] = tested on: duck salad (Heteranthera limosa); experiment: as above; conditions: 250 g ai/ha, scale 0 to 100 (0 no effect, 100 complete control), 13 to 15 d
In short: as §2

[19] = tested on: rice (Oryza sativa); experiment: as above; conditions: 250 g ai/ha, scale 0 to 100 (0 no effect, 100 complete control), 13 to 15 d
In short: as §2

[20] = tested on: sedge umbrella (small-flower umbrella sedge, Cyperus difformis); experiment: as above; conditions: 250 g ai/ha, scale 0 to 100 (0 no effect, 100 complete control), 13 to 15 d
In short: as §2

[21] = Test C, 31 g ai/ha, 0 is no effect, 100 is complete control
[22] = Test C, 125 g ai/ha, 0 is no effect, 100 is complete control
[23] = Test C, postemergence, 125 g ai/ha
[24] = Test C, postemergence, 31 g ai/ha

Structure (SMILES) | Ryegrass, Italian plant response rating (0 to 100 scale) [1, 21] | Barnyardgrass plant response rating (0 to 100 scale) [2, 21] | Foxtail, Giant plant response rating (0 to 100 scale) [3, 21] | Kochia plant response rating (0 to 100 scale) [4, 21] | Pigweed plant response rating (0 to 100 scale) [5, 21] | Ragweed plant response rating (0 to 100 scale) [6, 21] | Ryegrass, Italian plant response rating (0 to 100 scale) ([7]; Postemergence, 31 g ai/ha) | Ryegrass, Italian plant response rating (0 to 100 scale) [7, 23] | Barnyardgrass plant response rating (0 to 100 scale) [8, 23] | Blackgrass plant response rating (0 to 100 scale) [9, 23] | Corn plant response rating (0 to 100 scale) [10, 23] | Foxtail, Giant plant response rating (0 to 100 scale) [11, 23] | Galium plant response rating (0 to 100 scale) [12, 23] | Kochia plant response rating (0 to 100 scale) [13, 23] | Pigweed plant response rating (0 to 100 scale) ([14]; Postemergence, 31 g ai/ha) | Pigweed plant response rating (0 to 100 scale) [14, 23] | Ragweed plant response rating (0 to 100 scale) ([15]; Postemergence, 31 g ai/ha) | Ragweed plant response rating (0 to 100 scale) [15, 23] | Wheat plant response rating (0 to 100 scale) ([16]; Postemergence, 31 g ai/ha) | Wheat plant response rating (0 to 100 scale) [16, 23] | further results
CO/N=C(/c1c(O)c(C)nn(C)c1=O)c1cc(SC)cc2ccccc12 [Compound 298] | 0 | 0 | 0 | 0 | 0 | 0 | 0 | 0 | 0 | 20 | 0 | 0 | 30 | 10 | 0 | 40 | 0 | 10 | 0 | 0 | Ryegrass, Italian plant response rating (0 to 100 scale) [1, 22]: 0; Barnyardgrass plant response rating (0 to 100 scale) [2, 22]: 0; Foxtail, Giant plant response rating (0 to 100 scale) [3, 22]: 0; Kochia plant response rating (0 to 100 scale) [4, 22]: 0; Pigweed plant response rating (0 to 100 scale) [5, 22]: 10; Ragweed plant response rating (0 to 100 scale) [6, 22]: 0; Barnyardgrass plant response rating (0 to 100 scale) ([8]; Postemergence, 31 g ai/ha): 0; Blackgrass plant response rating (0 to 100 scale) ([9]; Postemergence, 31 g ai/ha): 0; Corn plant response rating (0 to 100 scale) ([10]; Postemergence, 31 g ai/ha): 0; Foxtail, Giant plant response rating (0 to 100 scale) ([11]; Postemergence, 31 g ai/ha): 0; Galium plant response rating (0 to 100 scale) ([12]; Postemergence, 31 g ai/ha): 0; Kochia plant response rating (0 to 100 scale) ([13]; Postemergence, 31 g ai/ha): 0; Plant response rating, Barnyardgrass (Flood) [17]: 0; Plant response rating, Ducksalad (Flood) [18]: 0; Plant response rating, Rice (Flood) [19]: 0; Plant response rating, Sedge, Umbrella (Flood) [20]: 0
CO/N=C(\c1ccc(F)c(Cl)c1)c1c(O)c(C)nn(C)c1=O [Compound 219] | 0 | 0 | 0 | 0 | 0 | 0 | 0 | 40 | 30 | 0 | 0 | 0 | 60 | 50 | 20 | 40 | 0 | 10 | 0 | 0 | Ryegrass, Italian plant response rating (0 to 100 scale) [1, 22]: 0; Barnyardgrass plant response rating (0 to 100 scale) [2, 22]: 0; Foxtail, Giant plant response rating (0 to 100 scale) [3, 22]: 0; Kochia plant response rating (0 to 100 scale) [4, 22]: 0; Pigweed plant response rating (0 to 100 scale) [5, 22]: 10; Ragweed plant response rating (0 to 100 scale) [6, 22]: 0; Barnyardgrass plant response rating (0 to 100 scale) ([8]; Postemergence, 31 g ai/ha): 20; Blackgrass plant response rating (0 to 100 scale) ([9]; Postemergence, 31 g ai/ha): 0; Corn plant response rating (0 to 100 scale) ([10]; Postemergence, 31 g ai/ha): 0; Foxtail, Giant plant response rating (0 to 100 scale) ([11]; Postemergence, 31 g ai/ha): 0; Galium plant response rating (0 to 100 scale) ([12]; Postemergence, 31 g ai/ha): 50; Kochia plant response rating (0 to 100 scale) ([13]; Postemergence, 31 g ai/ha): 10; Plant response rating, Barnyardgrass (Flood) [17]: 0; Plant response rating, Ducksalad (Flood) [18]: 0; Plant response rating, Rice (Flood) [19]: 0; Plant response rating, Sedge, Umbrella (Flood) [20]: 0
CO/N=C(\c1cc(F)cc(F)c1C)c1c(O)c(C)nn(C)c1=O [Compound 152] | 20 | 0 | 0 | 0 | 0 | 20 | 20 | 80 | 20 | 10 | 0 | 50 | 80 | 80 | 60 | 70 | 40 | 90 | 0 | 0 | Ryegrass, Italian plant response rating (0 to 100 scale) ([1]; 125 g ai/ha): 80; Barnyardgrass plant response rating (0 to 100 scale) ([2]; 125 g ai/ha): 10; Foxtail, Giant plant response rating (0 to 100 scale) ([3]; 125 g ai/ha): 20; Kochia plant response rating (0 to 100 scale) ([4]; 125 g ai/ha): 10; Pigweed plant response rating (0 to 100 scale) ([5]; 125 g ai/ha): 30; Ragweed plant response rating (0 to 100 scale) ([6]; 125 g ai/ha): 40; Barnyardgrass plant response rating (0 to 100 scale) [8, 24]: 0; Blackgrass plant response rating (0 to 100 scale) [9, 24]: 0; Corn plant response rating (0 to 100 scale) [10, 24]: 0; Foxtail, Giant plant response rating (0 to 100 scale) [11, 24]: 10; Galium plant response rating (0 to 100 scale) [12, 24]: 80; Kochia plant response rating (0 to 100 scale) [13, 24]: 50; Plant response rating, Barnyardgrass (Flood) [17]: 0; Plant response rating, Ducksalad (Flood) [18]: 0; Plant response rating, Rice (Flood) [19]: 0; Plant response rating, Sedge, Umbrella (Flood) [20]: 0

— US20210045385A1, “PYRIDAZINONE-SUBSTITUTED KETOXIMES AS HERBICIDES” (FMC Corporation, priority 2018, published 2021)
